Converted amounts (≈) assume the structure as drawn. “And” between values parts separate entries of the source, which are not always exact repeats. Identical values can stand only once. Counter-ions that a name gives are not always drawn. Like-named read-outs stand apart in the source and are kept apart here.
How the values were obtained:
A. baumannii ATCC 17978 = assay: General antimicrobial activity assay (CLSI broth microdilution), MIC; format: cell-based
Method: (§1) Whole-cell antimicrobial activity was determined by broth microdilution using the Clinical and Laboratory Standards Institute (CLSI) recommended procedure, Document M7-A7, “Methods for Dilution Susceptibility Tests for Bacteria that Grow Aerobically”.
(§2) Table 1 provides MIC values against bacterial strains K12; E. coli K12 tolC/Tn10; A. baumannii ATCC 17978; and P. aeruginosa PA01 for comparator compounds (C1-C15) shown in Table 4 and for G26-CH3. […] Similarly, compound G26-CH3 (Example 2) has poor activity against these Gram negative bacteria.

P. aeruginosa PA01 = assay: as above; format: cell-based
Method: as §1, §2

E. coli K12 = assay: as above; format: cell-based
Method: as §1, §2

Mtb H37Rv = assay: MIC determination against mycobacteria (resazurin); format: cell-based, M. tuberculosis; details: for MIC: Mycobacterium tuberculosis, read-out: Mtb H37Rv MIC (B); for Selectivity Index (A/B): HepG2 Tox50 (A) / Mtb H37Rv MIC (B)
HepG2 cells = assay: HepG2 cytotoxicity assay (resazurin, 48 h); format: cell-based, human
Method: HepG2 cells (HB-8065) were fed fresh medium (Essential Minimum Eagle Medium, EMEM, supplemented with 5% fetal calf serum and 2 mM L-glutamine) the day before subculturing the plates. On the day of plate seeding, a cell suspension of 100,000 cells/mL in culture medium was prepared. Cell suspension (100 uL) was added in each well of a black 96-well microplate with clear bottom, collagen coated, (Becton Dickinson) except in column 11, that was dispensed only 100 uL of culture medium. The plates were incubated for 24 h. It was made up a range of 10 doses of test substances by preparing serial dilutions 1:2 from the stock solution in 100% DMSO and made a dilution of 1:200 of each dose in medium, to achieve a final concentration of 0.5% of DMSO. After 24 h, culture medium was removed from the plate and 150 uL of test compound dilutions were added in two replicates and 150 uL of 0.5% DMSO in culture medium to columns 11 and 12 (blank control). Plates were incubated for 48 and at 37° C., 5% CO2, 95% relative humidity. The medium was then removed and 200 uL of fresh culture medium was added and 50 uL of Resazurin solution to each well and incubated for 1 h and a half. Plates were removed from incubator to allow the fluorescence to stabilise at room temperature protected from light for 15 min. For read out of viability of cells we used Resazurine (BDH). Resazurin is used as an oxidation-reduction indicator that yields a colorimetric change and a fluorescent signal in response to metabolic activity. As cell grows, metabolic activity results in a chemical reduction of Resazurin indicated by a change from non-fluorescent blue to the reduced fluorescent pink form. The degree of Resazurin fluorescence is therefore, an indicator of the number of viable cells in the culture system. Fluorescence was measured at an excitation wavelength of 515 nm and an emission wavelength of 590 nm in a Microplate reader 1420 Multilabel HTS counter, Victor 2, (Wallac).
The fluorescence value of each well is corrected by subtracting the background value (average of column 11) from the absolute value. The percentages of inhibition are calculated relatively to the DMSO control wells (average of column 12). For each compound, the average value of the duplicate samples is calculated and the curve is fitted to Sigmoidal dose-response (variable slope) nonlinear regression curve adjustment (GraphPad) in order to calculate the IC50 (Tox50).

Mtb LeuRS = Mtb LeuRS (Mycobacterium tuberculosis, UniProt P9WFV1); assay: LeuRS aminoacylation assay, IC50 determination; format: biochemical, M. tuberculosis
Sequence of Mtb LeuRS (P9WFV1 whole entry): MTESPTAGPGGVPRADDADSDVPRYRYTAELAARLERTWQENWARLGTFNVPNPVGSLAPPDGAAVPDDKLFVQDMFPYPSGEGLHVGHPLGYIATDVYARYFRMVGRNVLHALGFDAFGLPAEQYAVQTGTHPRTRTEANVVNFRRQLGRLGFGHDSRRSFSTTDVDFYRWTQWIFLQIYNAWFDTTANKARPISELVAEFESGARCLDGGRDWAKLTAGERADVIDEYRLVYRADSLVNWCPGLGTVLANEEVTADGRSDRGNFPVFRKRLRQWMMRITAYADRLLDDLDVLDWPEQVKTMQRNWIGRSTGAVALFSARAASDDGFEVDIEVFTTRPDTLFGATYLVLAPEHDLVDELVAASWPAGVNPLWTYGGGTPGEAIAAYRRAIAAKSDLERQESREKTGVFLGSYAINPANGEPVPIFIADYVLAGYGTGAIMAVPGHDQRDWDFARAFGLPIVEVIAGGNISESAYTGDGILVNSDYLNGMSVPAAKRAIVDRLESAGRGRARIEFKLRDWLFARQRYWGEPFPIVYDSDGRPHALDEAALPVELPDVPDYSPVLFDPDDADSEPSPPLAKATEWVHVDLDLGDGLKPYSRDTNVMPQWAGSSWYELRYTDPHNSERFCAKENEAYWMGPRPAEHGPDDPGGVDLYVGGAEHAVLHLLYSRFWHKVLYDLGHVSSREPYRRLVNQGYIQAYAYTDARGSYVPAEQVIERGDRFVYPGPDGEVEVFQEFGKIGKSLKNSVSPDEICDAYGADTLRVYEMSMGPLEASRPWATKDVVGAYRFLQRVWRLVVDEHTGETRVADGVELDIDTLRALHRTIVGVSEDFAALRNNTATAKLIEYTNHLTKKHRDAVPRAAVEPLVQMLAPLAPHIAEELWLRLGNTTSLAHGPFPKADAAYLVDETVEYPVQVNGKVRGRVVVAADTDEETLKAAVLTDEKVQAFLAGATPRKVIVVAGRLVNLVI
Method: For biochemical analyses an N-terminal six histidine-tagged LeuRS was over-expressed in Escherichia coli which were E. coli codon-optimised (GenScript, Piscataway N.J., USA), from human mitochondria and cytoplasm, and M. tuberculosis. N-terminal six histidine-tagged LeuRS proteins were over-expressed and purified according to Novagen (Madison, Wis., USA) using an E. coli BL21(DE3) T7 RNA polymerase over-expression strain.
Experiments were performed in 96-well microtiter plates, using 80 μL reaction mixtures containing 50 mM HEPES-KOH (pH 8.0), 30 mM MgCl2 30 mM KCl, 13 μM L-[^14C]leucine (306 mCi/mmol, Perkin-Elmer), 15 uM total E. coli tRNA (Roche, Switzerland), 0.02% (w/v) BSA, 1 mM DTT, 0.2 μM LeuRS and 4 mM ATP at 30° C. Reactions were started by the addition of 4 mM ATP. After 7 minutes, reactions were quenched and tRNA was precipitated by the addition of 50 μL of 10% (w/v) TCA and transferred to 96-well nitrocellulose membrane filter plates (Millipore Multiscreen HTS, MSHAN4B50). Each well was then washed three times with 100 μL of 5% TCA. Filter plates were then dried under a heat lamp and the precipitated L-[^14C]leucine tRNALeu were quantified by liquid scintillation counting using a Wallac MicroBeta Trilux model 1450 liquid scintillation counter (PerkinElmer, Waltham, Mass., USA). The only difference was with the human cytoplasmic LeuRS when we used tRNA isolated from Brewer's Yeast (Roche Diagnostics GmbH).
Reactions were initiated by the addition of 4 mM ATP. Reactions were stopped after 7 minutes then precipitated and counted to quantify radioactivity. IC50 values were determined using the Graphpad Prism software package (Graphpad Software Inc. (La Jolla, Calif., USA).

E. coli K12 tolC::Tn10 = assay: General antimicrobial activity assay (CLSI broth microdilution), MIC; format: cell-based; details: efflux pump deficient E. coli
Method: as §1, §2

S. pneumoniae ATCC 6301 = assay: as above; format: cell-based
Method: as §1

Human cyto LeuRS = Human cyto LeuRS (Homo sapiens, UniProt Q9P2J5); assay: LeuRS aminoacylation assay, IC50 determination; format: biochemical; details: tRNA from Brewer's Yeast
Sequence of Human cyto LeuRS (Q9P2J5 whole entry): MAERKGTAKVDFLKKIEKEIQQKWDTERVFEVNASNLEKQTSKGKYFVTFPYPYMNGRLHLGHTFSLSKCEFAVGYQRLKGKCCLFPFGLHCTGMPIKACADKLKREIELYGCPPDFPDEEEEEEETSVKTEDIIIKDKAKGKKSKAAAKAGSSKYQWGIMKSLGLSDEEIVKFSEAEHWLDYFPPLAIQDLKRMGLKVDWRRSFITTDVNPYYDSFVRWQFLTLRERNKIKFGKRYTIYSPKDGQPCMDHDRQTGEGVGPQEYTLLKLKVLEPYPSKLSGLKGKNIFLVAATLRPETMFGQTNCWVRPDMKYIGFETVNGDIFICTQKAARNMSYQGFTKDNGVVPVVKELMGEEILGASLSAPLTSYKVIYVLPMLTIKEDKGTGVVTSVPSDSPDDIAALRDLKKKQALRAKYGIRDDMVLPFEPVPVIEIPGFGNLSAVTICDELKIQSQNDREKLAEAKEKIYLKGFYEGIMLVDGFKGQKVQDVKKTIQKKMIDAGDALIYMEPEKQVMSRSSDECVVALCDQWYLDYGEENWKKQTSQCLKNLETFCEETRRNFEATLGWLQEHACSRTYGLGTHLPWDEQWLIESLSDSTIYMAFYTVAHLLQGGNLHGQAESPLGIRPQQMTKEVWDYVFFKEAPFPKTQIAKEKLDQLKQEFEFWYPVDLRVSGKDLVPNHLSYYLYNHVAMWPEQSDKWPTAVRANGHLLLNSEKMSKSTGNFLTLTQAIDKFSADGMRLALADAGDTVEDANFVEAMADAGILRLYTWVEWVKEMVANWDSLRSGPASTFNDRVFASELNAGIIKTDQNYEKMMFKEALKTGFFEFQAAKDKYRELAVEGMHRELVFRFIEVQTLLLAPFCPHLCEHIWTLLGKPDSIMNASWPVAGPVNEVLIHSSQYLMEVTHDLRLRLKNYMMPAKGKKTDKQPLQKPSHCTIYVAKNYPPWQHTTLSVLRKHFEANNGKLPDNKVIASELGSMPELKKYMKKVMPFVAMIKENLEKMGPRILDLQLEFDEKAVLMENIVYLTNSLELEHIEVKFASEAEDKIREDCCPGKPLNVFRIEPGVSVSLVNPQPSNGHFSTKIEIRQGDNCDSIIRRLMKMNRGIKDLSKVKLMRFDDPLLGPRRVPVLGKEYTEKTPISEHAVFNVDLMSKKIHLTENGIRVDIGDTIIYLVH

[1] = test system: pathogenic Gram negative bacteria; assay: General antimicrobial activity assay, summary in words for the panel; format: cell-based
Method: as §1, §2

[2] = test system: mammalian cellular protein synthesis; assay: Inhibition of protein synthesis in mammalian cells; format: cell-based
S. aureus ATCC 29213 = assay: General antimicrobial activity assay (CLSI broth microdilution), MIC; format: cell-based; set-up: unit not given beside the values
Method: as §1

[3] = M. tuberculosis standard strain H37Rv

In the case of `NCC1OB2OCCOc3cccc1c32` (racemic) [Example C2-H], the “MIC: A. baumannii ATCC 17978” value (A. baumannii ATCC 17978) is reported as 2 µg/mL (≈ 9.76 µM), the “MIC: P. aeruginosa PA01” value (P. aeruginosa PA01) is reported as 2 µg/mL (≈ 9.76 µM) and the “MIC: E. coli K12” value (E. coli K12) is reported as 2 µg/mL (≈ 9.76 µM). For the same compound, the MIC (Mtb H37Rv; H37RV) was 1.88 µM (≈ 0.385 µg/mL) and the “HepG2 cell 48 h Tox50 (A)” value (HepG2 cells; human) was >50 µM.
For `Cc1ccc2c3c1[C@@H](CN)OB3OCCO2` [Example 2, (S)-(3-methyl-7,8-dihydro-2H-1,6,9-trioxa-9a-borabenzo[cd]azulen-2-yl)methanamine], the IC50 (Mtb LeuRS) was 0.53 µM, the “activity against leucyl tRNA synthetase from M. tuberculosis” value (Mtb LeuRS) was “good activity” and the “MIC: A. baumannii ATCC 17978” value (A. baumannii ATCC 17978) was >64 µg/mL. The “MIC: E. coli K12 tolC::Tn10” value (E. coli K12 tolC::Tn10) was >64 µg/mL, the “MIC: P. aeruginosa PA01” value (P. aeruginosa PA01) was >64 µg/mL and the “MIC: E. coli K12” value (E. coli K12) was >64 µg/mL. For the same compound, the “MIC: S. pneumoniae ATCC 6301” value (S. pneumoniae ATCC 6301) was >64, the IC50 (Human cyto LeuRS) was 171 µM and the “Selectivity Index (A/B)” value (Mtb H37Rv; listed as Example 2 G26-CH3) was 4853 and > 4850. The MIC (Mtb H37Rv; H37RV) was 0.2 µM (≈ 0.0438 µg/mL), the “HepG2 cell 48 h Tox50 (A)” value (HepG2 cells; human) was 971 µM and the “activity against Gram negative bacteria” value [1] was “poor activity”. The “impact on mammalian cellular protein synthesis” value [2] was “low impact”, the IC50 ([2]; mammalian cells, read-out: Cell Prot Syn IC50) was > 600 µM and the “MIC S. aureus ATCC 29213” value (S. aureus ATCC 29213) was >64.
`NC[C@H]1OB2OCCOc3ccc(-c4ccccc4)c1c32` [Example 3, (S)-(3-phenyl-7,8-dihydro-2H-1,6,9-trioxa-9a-borabenzo[cd]azulen-2-yl)methanamine hydrochloride] showed an IC50 (Mtb LeuRS; read-out: Mtb LeuRS IC50) of 12 µM and an MIC (Mtb H37Rv; H37RV) of 8.75 µM.
`NC[C@H]1OB2OCCOc3ccc(-c4cccs4)c1c32` [Example 4, (S)-(3-(thiophen-2-yl)-7,8-dihydro-2H-1,6,9-trioxa-9a-borabenzo[cd]azulen-2-yl)methanamine] gave an IC50 (Mtb LeuRS; read-out: Mtb LeuRS IC50) of 300 µM and an MIC (Mtb H37Rv; H37RV) of 40.1 µM (≈ 11.5 µg/mL).
In the case of `c1cc2c3c(c1)OCCOB3OC2` [Example C1-H], the MIC (Mtb H37Rv; [3]) is reported as 31 µM (≈ 5.46 µg/mL).
`NCCOc1cccc2c1B(O)OC2` [Example C3-H] was tested, and the “Selectivity Index (A/B)” value (Mtb H37Rv) was >0.8, the MIC (Mtb H37Rv; [3]) was 62 µM (≈ 12 µg/mL) and the “HepG2 cell 48 h Tox50 (A)” value (HepG2 cells) was >50 µM.
With `CCOc1ccc(Br)c2c1B(O)O[C@@H]2CN` [Example C4-Br] the IC50 (Human cyto LeuRS) was 73 µM and 67 µM, the “Selectivity Index (A/B)” value (Mtb H37Rv) was 320 and the MIC (Mtb H37Rv; [3]) was 0.1 µM (≈ 0.0286 µg/mL). The “HepG2 cell 48 h Tox50 (A)” value (HepG2 cells) was 32 µM.
With `CCOc1cccc2c1B(O)O[C@@H]2CN` [Example C5-H] the “Selectivity Index (A/B)” value (Mtb H37Rv) was 3, the MIC (Mtb H37Rv; [3]) was 0.6 µM (≈ 0.124 µg/mL) and the “HepG2 cell 48 h Tox50 (A)” value (HepG2 cells) was 1.8 µM.
In the case of `CCOc1ccc(Cl)c2c1B(O)O[C@@H]2CN` [Example C6-Cl], the “Selectivity Index (A/B)” value (Mtb H37Rv) is reported as 363, the MIC (Mtb H37Rv; [3]) is reported as 0.1 µM (≈ 0.0241 µg/mL) and the “HepG2 cell 48 h Tox50 (A)” value (HepG2 cells) is reported as 36.3 µM.
`CC1COc2c(Cl)cc(Cl)c3c2B(O1)OC3CN` (centres unmarked) [Example C7-Cl2] was tested, and the “Selectivity Index (A/B)” value (Mtb H37Rv) was >20, the MIC (Mtb H37Rv; H37RV) was 2.5 µM (≈ 0.72 µg/mL) and the “HepG2 cell 48 h Tox50 (A)” value (HepG2 cells; human) was >50 µM.
With `CC1(C)COc2c(Cl)ccc3c2B(OC3CN)O1` (centres unmarked) [Example C8-Cl] the “Selectivity Index (A/B)” value (Mtb H37Rv) was 10 and the “HepG2 cell 48 h Tox50 (A)” value (HepG2 cells; human) was >50 µM.
With `CC1(C)COB2OC(CN)c3c(Cl)ccc(c32)O1` (centres unmarked) [Example C9-Cl] the “Selectivity Index (A/B)” value (Mtb H37Rv) was >10, the “Selectivity Index (A/B)” value (Mtb H37Rv; listed as C9-CI) was 10 and the MIC (Mtb H37Rv; H37RV) was 5 µM (≈ 1.34 µg/mL). For the same compound, the “HepG2 cell 48 h Tox50 (A)” value (HepG2 cells; human) was >50 µM.
With `CC1(C)COB2OC(CN)c3cccc(c32)O1` (centres unmarked) [Example C10-H] the “Selectivity Index (A/B)” value (Mtb H37Rv) was 10 and the “HepG2 cell 48 h Tox50 (A)” value (HepG2 cells; human) was >50 µM.
For `CC1COc2cccc3c2B(O1)OC3CN` (centres unmarked) [Example C11-H], the “MIC: A. baumannii ATCC 17978” value (A. baumannii ATCC 17978) was 4 µg/mL (≈ 18.3 µM), the “MIC: P. aeruginosa PA01” value (P. aeruginosa PA01) was 2 µg/mL (≈ 9.13 µM) and the “MIC: E. coli K12” value (E. coli K12) was 2 µg/mL (≈ 9.13 µM). For the same compound, the MIC (Mtb H37Rv; H37RV) was 1.56 µM (≈ 0.342 µg/mL), the “HepG2 cell 48 h Tox50 (A)” value (HepG2 cells; human) was > 50 µM and the “HepG2 cell 48 h, percentage in brackets beside Tox50” value (HepG2 cells; meaning of bracket not explained) was 40%.
With `CC1(C)COc2cccc3c2B(OC3CN)O1` (centres unmarked) [Example C12-H] the “MIC: A. baumannii ATCC 17978” value (A. baumannii ATCC 17978) was 4 µg/mL (≈ 17.2 µM), the “MIC: P. aeruginosa PA01” value (P. aeruginosa PA01) was 16 µg/mL (≈ 68.6 µM) and the “MIC: E. coli K12” value (E. coli K12) was 4 µg/mL (≈ 17.2 µM). The “HepG2 cell 48 h Tox50 (A)” value (HepG2 cells; human) was 24.5 µM.
In the case of `NC[C@H]1OB2OCCOc3c(Cl)ccc1c32` [Example C13-Cl], the IC50 (Mtb LeuRS; read-out: Mtb LeuRS IC50) is reported as 2.16 µM, the “Selectivity Index (A/B)” value (Mtb H37Rv) is reported as >10 and the MIC (Mtb H37Rv; H37RV) is reported as 5 µM (≈ 1.2 µg/mL). For the same compound, the “HepG2 cell 48 h Tox50 (A)” value (HepG2 cells; human) was >50 µM.
In the case of `NC[C@H]1OB2OCCOc3c(Cl)cc(Cl)c1c32` [Example C14-Cl2], the “Selectivity Index (A/B)” value (Mtb H37Rv) is reported as >10 and the “HepG2 cell 48 h Tox50 (A)” value (HepG2 cells; human) is reported as >50 µM.

— US10774096B2, “4-substituted benzoxaborole compounds and uses thereof” (GLAXOSMITHKLINE INTELLECTUAL PROPERTY (NO.2) LIMITED, priority 2015, dated 2020)
